Measured values from article PMC9172283 (Antiviral Research, 2022).

Assays:
[1] = MTT cell viability assay in Vero E6 cells; assay type: cell-based; conditions: African green monkey
[2] = tested on: SARS-CoV-2 M^pro (NanoLuc-nsp4-M^pro fusion protein); assay type: cell-based
SARS-CoV-2 M^pro = SARS-CoV-2 M^pro (Severe acute respiratory syndrome coronavirus 2, UniProt P0DTD1); assay: FRET-based SARS-CoV-2 M^pro activity assay in vitro; assay type: biochemical; conditions: for Inhibitory effect on M^pro catalytic activity at fixed concentration: 100 μM, cut-off 50% of inhibition
SARS-CoV-2 [3] = assay: Plaque reduction assay; assay type: cell-based, SARS-CoV-2/NL/2020 strain; conditions: ratio between CC50 and EC50; SARS-CoV-2, Vero E6 cells
[4] = MTT cell viability assay in MRC-5 cells; assay type: cell-based; conditions: human
HCoV-OC43 = assay: Plaque reduction assay against HCoV-OC43 in MRC-5 cells; assay type: cell-based; conditions: infected MRC-5 cells
HCoV-229E = assay: microbe, parasite or virus in culture; assay type: cell-based; conditions: for EC50: Human coronavirus 229E, MRC5, 144 h, read-out: HCoV-229E EC50
SARS-CoV-2 [5] = assay: Virus yield reduction assay of SARS-CoV-2 in Calu-3 cells; assay type: cell-based; conditions: MOI 0.01, 36 h p.i., titration on Vero E6

Structure (SMILES) | CC50 at 72 h [1] [µM] | IC50 (SARS-CoV-2 M^pro) [µM] | Inhibitory effect on M^pro catalytic activity at fixed concentration (SARS-CoV-2 M^pro) | SI, Selectivity Index (SARS-CoV-2 [3]) | also measured
CC(C)(C)NC(=O)N[C@H](C(=O)N1C[C@H]2[C@@H]([C@H]1C(=O)NC(CC1CCC1)C(=O)C(N)=O)C2(C)C)C(C)(C)C (stereo partly drawn) [BOC, Boceprevir, reference compound] | > 500 |  |  |  | Inhibition of proteolytic cleavage of NanoLuc-nsp4-M^pro in cells [2]: not detected
CCOc1ccc(NC(=O)C(=O)NCCc2csc3nc(-c4cccs4)nn23)cc1 [Compound 1] | > 500 | 142 ± 12 | exerted an inhibitory effect | >10 | 
CC(NC(=O)C(=O)NCCN1CCOCC1)C(c1cccs1)N1CCN(c2ccccc2)CC1 (stereo not drawn) [Compound 2] | > 500 |  |  | >10 | 
CCOc1ccccc1NC(=O)C(=O)NCC(c1cccnc1)N1CCN(c2ccccc2)CC1 (stereo not drawn) [Compound 3] | > 500 |  | not a significant inhibitory effect | >40 | CC50 at 72 h [4]: > 500 µM; Activity towards HCoV-OC43 (HCoV-OC43): retained activity; Activity towards HCoV-229E (HCoV-229E): retained activity; EC50 (HCoV-229E): 34.6 ± 8.5 µM
O=C(NCc1ccc(F)cc1)C(=O)NCC(c1cccnc1)N1CCN(c2ccccc2)CC1 (stereo not drawn) [Compound 4] | > 500 |  | not a significant inhibitory effect | >24 | CC50 at 72 h [4]: 300 ± 18 µM; Activity towards HCoV-OC43 (HCoV-OC43): retained activity; Activity towards HCoV-229E (HCoV-229E): retained activity; EC50 (HCoV-229E): 23.8 ± 9.9 µM
O=C(Nc1ccc2c(c1)OCO2)c1nnc(C(=O)N2CCCC(C(=O)NCc3ccccc3)C2)s1 (stereo not drawn) [Compound 5] | 207 ± 14 | 29 ± 3.7 | exerted an inhibitory effect | 29 | CC50 at 72 h [4]: 100 ± 11.9 µM; Activity towards HCoV-OC43 (HCoV-OC43): retained activity; Activity towards HCoV-229E (HCoV-229E): retained activity; EC50 (HCoV-229E): 10.4 ± 4.1 µM; SARS-CoV-2 titers in supernatants of infected and treated Calu-3 cells (SARS-CoV-2 [5]): significantly reduced SARS-CoV-2 titers
CCC(C)C(NC(=O)C1N2C(=O)c3ccccc3C2SC1(C)C)C(=O)NC(CO)C(C)C (stereo not drawn) [Compound 6] | > 500 | > 100 | not a significant inhibitory effect |  | CC50 at 72 h [4]: > 500 µM; Activity towards HCoV-OC43 (HCoV-OC43): retained activity; Activity towards HCoV-229E (HCoV-229E): retained activity; EC50 (HCoV-229E): 22.9 ± 4.9 µM; SARS-CoV-2 titers in supernatants of infected and treated Calu-3 cells (SARS-CoV-2 [5]): significantly reduced SARS-CoV-2 titers
COc1ccc(C(=O)Nc2ccccc2C(=O)NC(C(=O)Nc2ccccc2)C(C)C)cc1 (stereo not drawn) [Compound 7] | > 500 | 111 ± 2.2 | exerted an inhibitory effect | >10 | 
CCOC(=O)C(NC(=O)COc1ccccc1)(Nc1nc2ccccc2s1)C(F)(F)F (stereo not drawn) [Compound 8] | 68.8 ± 15.4 |  |  | 3 | 
O=C(Nc1ccccc1C(=O)NCc1ccccc1)c1cc(S(=O)(=O)N2CCOCC2)ccc1F [Compound 9] | > 500 |  |  | >10 | 
O=C(CCC(=O)NNC(=O)C(c1ccccc1)c1ccccc1)NCc1ccccc1 [Compound 10] | > 500 | 128 ± 18.8 | exerted an inhibitory effect | >10 | 
CC(=O)NCC(=O)NC1(C(=O)NC(c2ccccc2)c2ccccc2)CCCCC1 [Compound 11] | > 500 |  |  | >10 | 
O=C(NC(Cc1ccccc1)C(=O)NCc1ccccn1)OCc1ccccc1 (stereo not drawn) [Compound 12] | 428 ± 11 |  | not a significant inhibitory effect | 21 | 
COc1ccc(NC2=NC(=O)CC(C(=O)NCc3ccccc3)N2)cc1 (stereo not drawn) [Compound 13] | > 500 |  |  | >10 | 
CCN1CCN(C(C(=O)O)c2c[nH]c3ccc(NC(=O)CCC(=O)O)cc23)CC1 (stereo not drawn) [Compound 14] | > 500 |  |  | >10 | 
CCOC(=O)C1=C(CN2CCCN(C(=O)OC(C)(C)C)CC2)NC(=O)NC1c1ccc(C)cc1 (stereo not drawn) [Compound 15] | 113 ± 3 |  |  | 8 | 
COC(=O)C1=C(CN2CCN(C(=O)OC(C)(C)C)CC2)NC(=O)NC1c1ccccc1 (stereo not drawn) [Compound 16] | 401 ± 52 |  |  | 10 | 
CCOC(=O)C1=C(CN2CCC(NC(=O)OC(C)(C)C)CC2)NC(=O)NC1c1ccccc1 (stereo not drawn) [Compound 17] | 228 ± 6 |  |  | >5 | 
COc1ccc(C(=O)COC(=O)C(Cc2ccccc2)N2C(=O)C3C4C=CC(C4)C3C2=O)cc1 (stereo not drawn) [Compound 18] | > 500 |  |  | >10 | 

Structure (SMILES) | CC50 at 72 h [1] [µM] | IC50 (SARS-CoV-2 M^pro) [µM] | Inhibitory effect on M^pro catalytic activity at fixed concentration (SARS-CoV-2 M^pro) | SI, Selectivity Index (SARS-CoV-2 [3]) | also measured
CCc1cc(Br)cc2c(C(=O)N3CCOCC3)cc(-c3ccc(OC)cc3)nc12 [Compound 19] | 228 ± 69 |  | not a significant inhibitory effect | 32 | 
COc1ccc(C(=O)CN(C(=O)c2ccc(Cl)cc2)N2C(=O)CCC2=O)cc1 [Compound 20] | > 500 |  |  | >10 | 
COc1ccc2c(c1)c(CC(=O)O)c(C)n2C(=O)c1ccc(Cl)cc1 [Compound 21] | > 500 |  |  | >10 | 
Nc1ncnc2c1ncn2[C@@H]1O[C@H](CSCC[C@H](N)C(=O)O)[C@@H](O)[C@H]1O [Compound 22] | > 500 |  |  | >10 | 
COc1ccc(Cc2nn3c([C@@H](CCCc4ccccc4)[C@@H](C)O)nc(C)c3c(=O)[nH]2)cc1OC [Compound 23] |  |  | not a significant inhibitory effect |  | 
COc1ccc(-c2ocnc2C(=O)NCCCn2cncn2)cc1Cl [Compound 24] | > 500 |  | not a significant inhibitory effect |  | 
NC(=O)c1c(NC(=O)c2cnn3c(C(F)(F)F)cc(-c4ccccc4)nc23)sc2c1CCCC2 [Compound 25] | > 250 | 26.6 ± 7.4 | exerted an inhibitory effect | >31 | CC50 at 72 h [4]: > 250 µM; Activity towards HCoV-OC43 (HCoV-OC43): retained activity; EC50 (HCoV-229E): > 25 µM; SARS-CoV-2 titers in supernatants of infected and treated Calu-3 cells (SARS-CoV-2 [5]): significantly reduced SARS-CoV-2 titers
COc1ccc(-c2cc(C(F)(F)F)n3ncc(C(=O)Nc4sc5c(c4C(N)=O)CCCC5)c3n2)cc1 [Compound 26] | 68.9 ± 10 | 57.6 ± 4.1 | exerted an inhibitory effect | 7 | 
Cc1ccc(-c2cc(C(F)(F)F)n3ncc(C(=O)Nc4sc5c(c4C(N)=O)CCCC5)c3n2)cc1 [Compound 27] | 67.9 ± 16.5 | 46.2 ± 7.7 | exerted an inhibitory effect | 5 | 
NC(=O)c1c(NC(=O)c2cnn3c(C(F)F)cc(-c4ccccc4)nc23)sc2c1CCCC2 [Compound 28] | > 250 |  |  | >5 | 
CCC(C)NC(=O)c1ccccc1NC(=O)c1cccc(S(=O)(=O)Nc2ccccc2)c1 (stereo not drawn) [Compound 29] | > 500 |  | not a significant inhibitory effect |  | CC50 at 72 h [4]: > 250 µM; Activity towards HCoV-OC43 (HCoV-OC43): retained activity; Activity towards HCoV-229E (HCoV-229E): retained activity; EC50 (HCoV-229E): 15.7 ± 4.8 µM
CCC(C)NC(=O)c1ccccc1NC(=O)c1ccc(C)c(S(=O)(=O)Nc2cccc(NC(=O)c3ccccc3)c2)c1 (stereo not drawn) [Compound 30] | > 500 |  |  | >10 | 
COc1ccc(C(=O)Nc2ccccc2C(=O)N[C@H](C(=O)Nc2ccccc2)C(C)C)cc1 [Compound 31, (S)-2-(4-Methoxybenzamido)-N-(3-methyl-1-oxo-1-(phenylamino)butan-2-yl)benzamide] | > 250 | 43.7 ± 9.2 |  | >5 | Fold increase of inhibitory potency against M^pro compared to parental hit 7 (SARS-CoV-2 M^pro; compared to hit 7): > 2 fold
COc1ccc(C(=O)Nc2ccccc2C(=O)N[C@H](C(=O)N[C@H](CO)C(C)C)C(C)C)cc1 [Compound 32, N-((S)-1-(((S)-1-Hydroxy-3-methylbutan-2-yl)amino)-3-methyl-1-oxobutan-2-yl)-2-(4-methoxybenzamido)benzamide] | > 250 | > 200 |  | >8 | 
COc1ccc(C(=O)Nc2ccccc2C(=O)N[C@H](C(=O)NC2CCCCC2)C(C)C)cc1 [Compound 33, (S)-N-(1-(Cyclohexylamino)-3-methyl-1-oxobutan-2-yl)-2-(4-methoxybenzamido)benzamide] | > 250 | 26.7 ± 7.3 |  | >7 | 
CCNC(=O)[C@@H](NC(=O)c1ccccc1NC(=O)c1ccc(OC)cc1)C(C)C [Compound 34, (S)-N-(1-(Ethylamino)-3-methyl-1-oxobutan-2-yl)-2-(4-methoxybenzamido)benzamide] | > 250 |  |  | >5 | 
CC(C)[C@H](NC(=O)c1ccccc1NC(=O)c1ccc(O)cc1)C(=O)N[C@H](CO)C(C)C [Compound 35, N-((S)-1-(((S)-1-Hydroxy-3-methylbutan-2-yl)amino)-3-methyl-1-oxobutan-2-yl)-2-(4-hydroxybenzamido)benzamide] | > 250 | 19 ± 8.4 |  | >10 | 
CCC(CC)COC(=O)[C@H](C)N[P@](=O)(OC[C@H]1O[C@@](C#N)(c2ccc3c(N)ncnn23)[C@H](O)[C@@H]1O)Oc1ccccc1 [RMV, remdesivir, reference compound] | > 250 |  |  |  | EC50 (HCoV-229E): 0.09 ± 0.03 µM
